The values below come from US20230265438A1, “NUCLEIC ACIDS FOR INHIBITING EXPRESSION OF CNNM4 IN A CELL” (ASOCIACIÓN CENTRO DE INVESTIGACIÓN COOPERATIVA EN …, priority 2020, published 2023).

In data set [1] the test system is primary hepatocytes. Nature of the data set: Lipid content in NASH-induced primary hepatocytes, BODIPY (Example 1). Type of data set: cell-based, mouse. As to the method:
Primary hepatocytes from 3-month old wild-type (C57BL/6J) mice were isolated by perfusion with collagenase Type I (Worthington, USA). Briefly, animals were anesthetized with isoflurane (1.5% isoflurane in O2). […] Liver was perfused with buffer A (1x PBS, 5 mM EGTA, 37° C. and oxygenated) and the portal vein was cut. Next, liver was perfused with buffer B (1x PBS, 1 mM CaCl2 37° C. and oxygenated) to remove EGTA, and finally perfused with buffer C (1x PBS, 2 mM CaCl2, 0.65 BSA, collagenase type I, 37° C. and oxygenated). After buffer C perfusion, liver was separated from the resto of the body and placed into a petri dish with MEM (Gibco, USA). Gall bladder was carefully removed and, then, liver was mechanically disaggregated with forceps. […]
(§1) Primary hepatocytes cultured in high lipid content medium (OA) or methionine/choline deficient medium (MDMC) were fixed in 4% paraformaldehyde (10′, RT) in PBS and incubated with BODIPY 493/503 (Molecular Probes, Invitrogen) at 1 mg/ml (1h, RT). […] Quantification of lipid bodies was performed using Frida Software and represented as mean area per total number of cells.

The subject of data set [2] is primary hepatocytes. Nature of the data set: Intracellular magnesium levels in primary hepatocytes (Example 1). It is filed as cell-based, mouse. The note with it: NASH-induced primary hepatocytes; FIG. 7B. As to the method:
Primary hepatocytes grown in glass coverslips were loaded with 2 µM Mag-S-Tz or 1 µM Mag-S-Tz-AM diluted REF (Gruskos et al., 2016. J. Am. Chem. Soc. 138 (44), pp 14639-14649) in 0% FBS/1% PSG medium and incubated at 37° C. and 5% CO2 during 30′ or 1 h respectively. After removing the dye-containing medium, a 30′ incubation in 0% FBS/1% PSG was performed. Coverslips were then washed in a 20 mM Tris-HCl, 2.4 mM CaCl2, 10 mM glucose, pH 7.4 buffer and mounted on a perfusion chamber with thermostat on a Eclipse TE 300-based microspectrofluorometer (Nikon, USA) and visualized with a 40x oil-immersion fluorescence. Intracellular Mg2+ levels were determines using the method described by Grynkiewicz (Grynkiewiz et al., 1985. J Biol Chem. 260(6):3440-50). The 340/380 nm excited light ratio was determined with a Delta system (Photon Technologies International, Princeton) and converted into Mg^2+ concentration from the standard equation: […]

Data set [3] deals with T1, ASGP-R complex (Homo sapiens, UniProt P07306+P07307).
T1 sequence (P07306 1-291): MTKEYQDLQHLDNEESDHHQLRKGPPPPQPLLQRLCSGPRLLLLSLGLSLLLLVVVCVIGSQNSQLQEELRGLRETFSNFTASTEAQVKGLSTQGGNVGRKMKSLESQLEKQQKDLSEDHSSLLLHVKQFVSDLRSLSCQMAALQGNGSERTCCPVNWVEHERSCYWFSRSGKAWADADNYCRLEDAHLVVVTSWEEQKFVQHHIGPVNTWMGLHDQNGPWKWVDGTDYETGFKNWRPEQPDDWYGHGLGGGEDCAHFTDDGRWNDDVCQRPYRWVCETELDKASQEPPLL
T1 sequence (P07307 1-311): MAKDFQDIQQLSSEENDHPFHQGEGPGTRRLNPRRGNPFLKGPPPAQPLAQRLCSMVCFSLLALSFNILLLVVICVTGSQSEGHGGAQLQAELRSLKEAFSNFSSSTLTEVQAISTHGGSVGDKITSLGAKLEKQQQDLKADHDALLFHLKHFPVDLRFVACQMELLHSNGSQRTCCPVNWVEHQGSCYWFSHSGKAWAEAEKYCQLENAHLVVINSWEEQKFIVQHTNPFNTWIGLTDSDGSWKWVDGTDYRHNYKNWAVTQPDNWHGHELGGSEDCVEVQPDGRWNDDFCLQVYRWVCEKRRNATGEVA
The note with it: cited from earlier work.

In data set [4] the test system is THLE2 cells. Nature of the data set: Lipid accumulation in NASH-induced human cells (THLE2) (Example 1). Type of data set: cell-based. Particulars: FIG. 4A, 4B. As to the method:
THLE-2 cells were purchased from ATCC (ATCC® CRL-2706TM). They were maintained on Bronchial Epithelial Growth Medium (BEGMTM, Lonza) supplemented with BEGM Bullet KitTM (Lonza) and 10%FBS. They were split with 0.05% trypsin-EDTA and collected in BEGM. After centrifugation at 123 g during 5 minutes, supernatant was discarded and pellet resuspended.
Cells were transfected with specific siRNAs (Hs n7o for human CNNM4 and Mm n7o for mouse CNNM4) at a final concentration of 100 nM using DharmaFECT 1 reagent (Dharmacon) following manufacturer’s protocol. DharmaFECT 1 and siRNA were diluted separately in 0% FBS/1% PSG MEM for 5′ at RT. Dilutions were then mixed and incubated 20′ at RT. siRNA transfection mixes were then added to cell suspension medium and replaced for fresh medium after 6 h.
Cells were transfected with a CNNM4 shRNA (SEQ ID NO: 454) by using lipofectamine® 3000 (Thermofisher) and following the protocol according manufacturer instructions. […]
as §1

The subject of data set [5] is CNNM4 mRNA. Nature of the data set: CNNM4 mRNA in liver of wild-type mice after single subcutaneous dose (Examples 12-14). Particulars: wild-type C57BL/6 mice. It is filed as in vivo, mouse. As to the method: (§2) Five- to seven-week old male C57BL/6 mice were treated with a single dose of 1 or 5 mg siRNA conjugate per kg body weight by subcutaneous injection. Control groups received a subcutaneous injection with the vehicle PBS. Two weeks after the treatment, liver samples were collected from all mice and snap frozen. RNA was extracted from liver samples and CNNM4 and Actin mRNA levels were determined by Taqman qRT-PCR. Values obtained for CNNM4 mRNA were normalized to values generated for the housekeeping gene Actin and related to mean of untreated sample (ut) set at 1-fold target gene expression. Each bar represents mean value from 6 animals +/-SD.
Five- to seven-week old male C57BL/6 mice were treated with a single dose of 0.3 or 1 mg siRNA conjugate per kg body weight by subcutaneous injection. Control groups received a subcutaneous injection with the vehicle PBS. Two weeks after the treatment, liver samples were collected from all mice and snap frozen. RNA was extracted from liver samples and CNNM4 and Actin mRNA levels were determined by Taqman qRT-PCR. Values obtained for CNNM4 mRNA were normalized to values generated for the housekeeping gene Actin and related to mean of untreated sample (ut) set at 1-fold target gene expression. Each bar represents mean value from 6 animals +/-SD.
as §2, with “1” for “1 or 5”, “Five” for “Two”, “PBS treated cohort (PBS)” for “untreated sample (ut)”

The subject of data set [6] is 0.1% MCDD NASH model. Nature of the data set: Rodent 0.1% MCDD NASH model: steatosis, ROS, macrophages, fibrosis, serum Mg2+ (Example 18). It is filed as in vivo, mouse. The note with it: 0.1% MCDD mice. As to the method:
Three-month old male C57BL/6 mice were maintained on a diet deficient in choline with 0.1% methionine (0.1%MCDD) (A02082006i, Research Diets, Inc., New Jersey, USA) for six weeks or fed a standard chow (SC). After three weeks of 0.1% MCDD, mice were treated with […] CNNM4 siRNA conjugate (EU414) per body weight. Control groups fed with 0.1% MCD received 1 mg/kg non-targeting siRNA conjugate (EU400). Control mice fed with normal chow (SC) received the vehicle PBS at the same time point (three weeks). Liver samples were collected from all mice at the end of the study and cryopreserved by embedding in […] cryocompound (OCT) or fixed with formalin and embedded in paraffin for preparation of sections. Lipid bodies and reactive oxygen species (ROS) were detected in cryosections by staining with Sudan red and Dihydroxyetidium (DHE), respectively. Liver fibrosis was assessed in paraffine sections by staining of the smooth muscle cell marker alpha smooth muscle actin (αSMA) by immunohistochemistry, as well as by detection of collagen fibers by Sirius red staining. Macrophages were detected by immunohistochemistry, by F4/80 staining of paraffin-embedded liver sections. Blood samples were collected from all animals at the six-week time point for serum preparation. Serum Mg^2+ levels were then determined using the QuantiCrom™Magnesium Assay Kit (BioAssay Systems, USA).
These figures show quantifications of stained area percentages from each individual staining calculated using FIJI (https://imagej.net/Fiji.) in box and whisker plots with 5-95% percentile. n=5-7. (a.u. = arbitrary units).

The subject of data set [7] is murine hepatocytes. As to the kind of experiment: Acetaminophen (APAP) induced cell death in hepatocytes, Tunel and Trypan Blue (Example 19). Type of data set: cell-based. The note with it: 1 nM and 10 nM for 6 hours, 10 mM acetaminophen for 6 hours. As to the method: Freshly prepared murine hepatocytes were seeded in multi-well plates. Upon attachment, cells were incubated for 6 hours with 1 nM and 10 nM of EU404 or EU414 or left untreated. Thereafter, cells were cultured in serum-free culture medium (MEM) for 13 to 14 hours. Subsequently, they remained untreated (Ut) or 10 mM acetaminophen was added to the medium (APAP). 6 hours later, cells were stained by Tunel assay or Trypan Blue staining to determine the proportion of cells that were necrotic (Tunel positive) or had undergone cell death (Trypan Blue positive).

Data set [8] has as its system CNNM4. As to the kind of experiment: CNNM4 expression in hepatocytes of the APAP experiment (Example 19). It is filed as cell-based. Particulars: murine hepatocytes, 1 nM and 10 nM for 6 hours; FIG. 25A.

Oligonucleotides are written 5' to 3', each unit as a sugar letter and its base; * is a phosphorothioate linkage, no mark a phosphodiester; rarer units and linkages stand in square brackets, end groups in braces. Plain capitals give the bases only. {ST23(ps)x3-ST43} = conjugate of three ST23 units joined by phosphorothioates, then ST43, saccharide (preferably GalNAc) moiety; {VP} = (E)-vinylphosphonate; m = 2'-O-methyl; f = 2'-fluoro

As to `Nc1c[nH]c(=O)c2cc(-c3ccccc3)sc12` [7-amino-2-phenyl-5H-thieno[3,2-c]pyridin-4-one, reference compound], the Lipid content entry in data set [1] (NASH-induced primary hepatocytes, FIG. 3A, 5A, 7A) was “decreases its lipid content”. In addition, the Intracellular magnesium levels result in data set [2] is on record as “accumulate magnesium”.
As to `CC(=O)N[C@H]1C(O)O[C@H](CO)[C@H](O)[C@@H]1O` (stereo partly drawn) [GalNAc, 2-(Acetylamino)-2-deoxy-D-galactopyranose], the “Affinity for the ASGP-R complex relative to D-Gal” value in data set [3] is reported as 50 fold.
As for “CNNM4 shRNA: CNNM4 shRNA (SEQ ID NO: 454) (UCUCUGCCUUCAAGGAUGCGGACAAUGAG; listed as RNA, chemistry not fully specified)”, in data set [4], the Lipid content entry is listed as “returns to healthy levels”.
Take “EU420: CNNM4 siRNA conjugate, duplex EU414A/EU420B; consists of SEQ ID NO: 237 and SEQ ID NO: 460 (chain 1 UGACAAAAGACACAAGAGU; chain 2 ACUCUUGUGUCUUUUGUCA; conjugate, chemistry not fully specified)”: the “CNNM4 mRNA levels in the liver” value was “reduction of CNNM4 mRNA levels” in data set [5] (five weeks after single dose of 1 mg/kg s.c., FIG. 20) and “reduction of CNNM4 mRNA levels” in data set [5] (two weeks after single dose of 0.3 or 1 mg/kg s.c., FIG. 19).
Regarding Magnesium, the Lipid content entry in data set [1] (primary hepatocytes with CNNM4 overexpression, FIG. 5B) is recorded as “does not reduce lipid content”.
With “EU414: CNNM4 siRNA conjugate, duplex EU414A/EU414B; consists of SEQ ID NO: 237 and SEQ ID NO: 238 (chain 1 {VP}-mUfGmAfCmAfAmAfAmGfAmCfAmCfAmAfGmA*fG*mU; chain 2 {ST23(ps)x3-ST43}*mAmCmUmCmUmUfGfUfGmUmCmUmUmUmUmGmU*mC*mA)”, in data set [5] (two weeks after single dose of 1 or 5 mg/kg s.c., FIG. 18), the “CNNM4 mRNA levels in the liver” value is listed as “reduction of CNNM4 mRNA levels”. Moreover, the “Liver steatosis (lipid bodies, Sudan red)” value in data set [6] (1 or 5 mg/kg at week 3, liver at week 6, FIG. 24A) was “reduction of liver steatosis”. Also, the “Reactive oxygen species (DHE staining)” value in data set [6] (1 or 5 mg/kg at week 3, liver at week 6, FIG. 24B) is recorded as “reduction of reactive oxygen species”. Moreover, the “Macrophage infiltration (F4/80 positive cells) in the liver” value in data set [6] (1 or 5 mg/kg at week 3, liver at week 6, FIG. 24C) is reported as “reduction of macrophage infiltration”. The “Liver fibrosis (αSMA, Sirius red)” value in data set [6] (1 or 5 mg/kg at week 3, liver at week 6, FIGS. 24D and 24E) is “reduction in liver fibrosis”. In data set [6] (1 or 5 mg/kg at week 3, serum at six-week time point, FIG. 24F), the “Serum Mg2+ levels” value is reported as “reduction of serum Mg^2+ levels”. In data set [7], the “Tripan Blue positive cells (cell death marker)” value was “reduction” and the “Tunel positive cells (necrosis marker)” value was “reduction of Tunel positive cells”. For the same molecule, the CNNM4 expression result in data set [8] is “reduction of CNNM4 expression”.
